Test results from patent US20230203485A1, “METHODS FOR MODULATING MHC-I EXPRESSION AND IMMUNOTHERAPY USES THEREOF” (Dana-Farber Cancer Institute, Inc., priority 2020, published 2023).

Test system: class I antigen presentation gene expression in MCC cell lines
Assay: RNA-seq / DESeq2 differential expression of MCC cell lines at baseline and after IFN-γ stimulation
Format: cell-based, human
Conditions: 11 MCC cell lines, baseline vs IFNγ; negative LFC = upregulation in IFNγ-treated
Method: FIG. 2A comprises RNA-seq heatmaps of class I antigen presentation gene expression in MCC lines and controls.
FIG. 2B is a volcano plot of differentially expressed genes (genes below FDR cutoff 0.01 are shown in yellow) between baseline and IFN-γ-treated MCC cell lines. Differential expression analysis was performed using DESeq2, and negative LFC indicates increased expression in +IFN-γ samples. IFN genes are highlighted in red.
RNA samples were first assessed for quality using the Agilent Bioanalyzer (DV200 metric). One hundred ng of RNA were used as the input for first strand cDNA synthesis using Superscript III reverse transcriptase and Illumina's TruSeq RNA Access Sample Prep Kit. Synthesis of the second strand of cDNA was followed by indexed adapter ligation with UMI (unique molecular index) adaptors. Subsequent PCR amplification enriched for adapted fragments. Amplified libraries were quantified, normalized, pooled, and hybridized with exome targeting oligos. Following hybridization, bead clean-up, elution and PCR was performed to prepare library pools for sequencing on Illumina flowcell lanes. Transcriptomes were sequenced to a coverage of at least 50 million reads in pairs.
Raw fastq files for fibroblast and keratinocyte control lines were downloaded from SRA using R Bioconductor package SRAdb (Mayakonda et al. (2018) supra; Zhu et al. (2013) BMC Bioinformatics 14 (1): 1-4) using accession codes SRP126422 (4 replicates from control samples ‘NN’) and SRP131347 (6 replicates with condition: control and genotype: control). These fastq files, along with those for the mkl1 and waga cell lines, were aligned using STAR version 2.7.3a (Dobin et al. (2013) Bioinformatics 29 (1): 15-21), using index genome reference file downloaded from ftp.ebi.ac.uk/pub/databases/gencode/Gencode_human/release_19/GRCh37.p13.genome.fa.gz, transcript annotation file downloaded from data.broadinstitute.org/snowman/hg19/star/gencode.v19.annotation.gtf, and with the following options: --twopassMode Basic, --outSAMstrandField intronMotif, --alignIntronMax 1000000, --alignMatesGapMax 1000000, --sjdbScore 2, --outSAMtype BAM Unsorted, --outSAMattributes NH HI NM MD AS XS, --outFilterType BySJout, --outSAMunmapped Within, --genomeLoad NoSharedMemory, --outFilterScoreMinOverLread 0, --outFilterMatchNminOverLread 0, --outFilterMismatchNmax 999, and outFilterMultimapNmax 20. Duplicates were marked with picard MarkDuplicates version 2.22.0-SNAPSHOT.
RNA-sequencing bam files for MCC tumor and cell line samples were downloaded from the Broad Genomics Firecloud/Terra platform using the Google Cloud Storage command line tool gsutil version 4.5 (github.com/GoogleCloudPlatform/gsutil/).
Gene counts were obtained from bam files using featureCounts version 2.0.0 (doi.org/10.1093/bioinformatics/btt656). Very lowly expressed genes with average count across samples less than 1 were excluded from analysis. Between-sample distance metrics were computed using the Euclidean distance on the vectors of variance-stabilized counts obtained from the vst function in the DESeq2 R Bioconductor package ([…]; Love et al. (2014) Genome Biology 15 (12): 550).
Differential expression analysis was carried out between (1) viral positive and viral negative samples (adjusting for cell line or tumor as a covariate), (2) cell line and tumor samples (adjusting for viral status as a covariate), and (3) IFNγ plus and minus samples (adjusting for viral status as a covariate) using the negative binomial GLM Wald test of DESeq2, where significance was assessed using the p-values adjusted for multiple comparisons under default settings. To account for potential global gene expression differences among sample groups, RUVg (Risso et al. (2014) […] 32 (9): 896-902) was used to estimate latent factors of unwanted variation from the list of housekeeping genes downloaded from www.tau.ac.il/˜elieis/HKG/HK_genes.txt. […]

For “IFN-y: type II interferon, recombinant human, used to treat MCC cells”, the “log2FoldChange FBXO6 (ENSG00000116663.6)” value was −2.854, the “log2FoldChange FREM3 (ENSG00000183090.5)” value was −4.873 and the “log2FoldChange FZD5 (ENSG00000163251.3)” value was −1.098. The “log2FoldChange GBP1 (ENSG00000117228.9)” value was −10.1, the “log2FoldChange GBP1P1 (ENSG00000225492.2)” value was −7.927 and the “log2FoldChange GBP2 (ENSG00000162645.8)” value was −6.235. The “log2FoldChange GBP3 (ENSG00000117226.7)” value was −9.215, the “log2FoldChange GBP4 (ENSG00000162654.8)” value was −10.33 and the “log2FoldChange GBP5 (ENSG00000154451.10)” value was −5.854. The “log2FoldChange HCP5 (ENSG00000206337.6)” value was −5.131, the “log2FoldChange HELB (ENSG00000127311.5)” value was −1.463 and the “log2FoldChange HERC5 (ENSG00000138646.4)” value was −2.156. The “log2FoldChange HERC6 (ENSG00000138642.10)” value was −9.027, the “log2FoldChange HLA-A (ENSG00000206503.7)” value was −3.702 and the “log2FoldChange HLA-B (ENSG00000234745.5)” value was −4.921. The “log2FoldChange HLA-C (ENSG00000204525.10)” value was −4.155, the “log2FoldChange HLA-DMA (ENSG00000204257.10)” value was −3.237 and the “log2FoldChange HLA-DMB (ENSG00000242574.4)” value was −5.727. For the same substance, the “log2FoldChange HLA-DOA (ENSG00000204252.8)” value was −7.789, the “log2FoldChange HLA-DOB (ENSG00000241106.2)” value was −3.598 and the “log2FoldChange HLA-DPA1 (ENSG00000231389.3)” value was −9.303. The “log2FoldChange HLA-DPB1 (ENSG00000223865.6)” value was −7.613, the “log2FoldChange HLA-DQB1 (ENSG00000179344.12)” value was −7.335 and the “log2FoldChange HLA-DRA (ENSG00000204287.9)” value was −10.07. For the same substance, the “log2FoldChange HLA-DRB1 (ENSG00000196126.6)” value was −7.278, the “log2FoldChange HLA-DRB5 (ENSG00000198502.5)” value was −5.98 and the “log2FoldChange HLA-E (ENSG00000204592.5)” value was −2.608. The “log2FoldChange HLA-F (ENSG00000204642.9)” value was −7.289, the “log2FoldChange HLA-G (ENSG00000204632.7)” value was −3.367 and the “log2FoldChange HLA-H (ENSG00000206341.6)” value was −3.883. The “log2FoldChange HLA-J (ENSG00000204622.6)” value was −4.551, the “log2FoldChange HLA-L (ENSG00000243753.1)” value was −2.336 and the “log2FoldChange IDO1 (ENSG00000131203.8)” value was −5.825. The “log2FoldChange IFI6 (ENSG00000126709.10)” value was −2.328, the “log2FoldChange IFI16 (ENSG00000163565.14)” value was −5.946 and the “log2FoldChange IFI44 (ENSG00000137965.6)” value was −8.954. The “log2FoldChange IFI44L (ENSG00000137959.11)” value was −7.733, the “log2FoldChange IFIH1 (ENSG00000115267.5)” value was −4.034 and the “log2FoldChange IFIT1 (ENSG00000185745.8)” value was −3.465. The “log2FoldChange IFIT2 (ENSG00000119922.7)” value was −6.152, the “log2FoldChange IFIT3 (ENSG00000119917.9)” value was −9.398 and the “log2FoldChange IFITM1 (ENSG00000185885.11)” value was −8.763. For the same substance, the “log2FoldChange IFITM3 (ENSG00000142089.11)” value was −7.436, the “log2FoldChange IFNB1 (ENSG00000171855.5)” value was −3.53 and the “log2FoldChange IL7 (ENSG00000104432.8)” value was −3.753. For the same substance, the “log2FoldChange IL15 (ENSG00000164136.12)” value was −6.781, the “log2FoldChange IL15RA (ENSG00000134470.15)” value was −6.483 and the “log2FoldChange IL17RC (ENSG00000163702.14)” value was −1.188. The “log2FoldChange IL18BP (ENSG00000137496.13)” value was −1.497, the “log2FoldChange INPPI (ENSG00000151689.8)” value was −1.931 and the “log2FoldChange IRF1 (ENSG00000125347.9)” value was −5.385. The “log2FoldChange IRF2 (ENSG00000168310.6)” value was −1.588, the “log2FoldChange ISG15 (ENSG00000187608.5)” value was −3.824 and the “log2FoldChange ITK (ENSG00000113263.8)” value was −4.656. For the same substance, the “log2FoldChange KCNIP4 (ENSG00000185774.10)” value was −2.647, the “log2FoldChange KDR (ENSG00000128052.8)” value was −7.174 and the “log2FoldChange KIAA0040 (ENSG00000235750.5)” value was −3.216. For the same substance, the “log2FoldChange LAP3 (ENSG00000002549.8)” value was −1.871, the “log2FoldChange LGALS12 (ENSG00000133317.10)” value was −4.156 and the “log2FoldChange LIPT1 (ENSG00000144182.12)” value was −0.5688. For the same substance, the “log2FoldChange LOC154761 (ENSG00000253882.2)” value was −3.161, the “log2FoldChange LY75 (ENSG00000054219.9)” value was −2.87 and the “log2FoldChange MAJIN (ENSG00000168070.7)” value was −3.183. For the same substance, the “log2FoldChange MOB3C (ENSG00000142961.10)” value was −1.494, the “log2FoldChange MOV10 (ENSG00000155363.14)” value was −1.652 and the “log2FoldChange MTMR9LP (ENSG00000220785.3)” value was −0.5387. The “log2FoldChange NOD1 (ENSG00000106100.6)” value was −1.317, the “log2FoldChange NRIR (ENSG00000225964.1)” value was −3.724 and the “log2FoldChange NUB1 (ENSG00000013374.11)” value was −1.521. The “log2FoldChange NUGGC (ENSG00000189233.7)” value was −3.265, the “log2FoldChange OPTN (ENSG00000123240.12)” value was −1.482 and the “log2FoldChange PARP3 (ENSG00000041880.10)” value was −1.726. For the same substance, the “log2FoldChange PARP9 (ENSG00000138496.12)” value was −5.112, the “log2FoldChange PARP10 (ENSG00000178685.9)” value was −3.43 and the “log2FoldChange PARP12 (ENSG00000059378.8)” value was −2.758. For the same substance, the “log2FoldChange PARP14 (ENSG00000173193.9)” value was −9.512, the “log2FoldChange PARP15 (ENSG00000173200.8)” value was −3.778 and the “log2FoldChange PLA2G16 (ENSG00000176485.6)” value was −2.531.
